Assay results from PubChem BioAssay AID330 (DTP/NCI, 2004).
Several values for one entry are separate records, joined by “and”; a condition that tells them apart may be missing. Equal values may be shown once. Inconclusive results and toxic doses are left out. Rule for the calls: active = survival T/C of 150% or more; inactive = T/C below 125% in these data.

Tested on: P388 leukemia ip, CD2F1 mice, survival T/C
Test: NCI In Vivo Anticancer Drug Screen. Data for tumor model P388 Leukemia (intraperitoneal) in CD2F1 (CDF1) mice
Conditions: endpoint: median survival time, higher = longer survival
Summary of the method: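 Mice carrying the transplanted tumor received test compound or vehicle. Survival was recorded in each group, and the value is the treated-group measurement divided by that of the vehicle-treated control group.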

[1] = dose: 100.0 mg/kg/injection, schedule: Q01DX001 (ip), vehicle: saline with Tween-80
[2] = dose: 200.0 mg/kg/injection, schedule: Q01DX001 (ip), vehicle: saline with Tween-80
[3] = dose: 400.0 mg/kg/injection, schedule: Q01DX001 (ip), vehicle: saline with Tween-80
[4] = dose: 60.0 mg/kg/injection, schedule: Q01DX005 (ip), vehicle: Klucel (hydroxypropylcellulose) (HPC)
[5] = dose: 120.0 mg/kg/injection, schedule: Q01DX005 (ip), vehicle: Klucel (hydroxypropylcellulose) (HPC)
[6] = dose: 60.0 mg/kg/injection, schedule: Q01DX005 (ip), vehicle: saline with Tween-80
[7] = dose: 120.0 mg/kg/injection, schedule: Q01DX005 (ip), vehicle: saline with Tween-80
[8] = dose: 240.0 mg/kg/injection, schedule: Q01DX005 (ip), vehicle: saline with Tween-80
[9] = dose: 50.0 mg/kg/injection, schedule: Q01DX009 (ip), vehicle: saline with Tween-80
[10] = dose: 100.0 mg/kg/injection, schedule: Q01DX009 (ip), vehicle: saline with Tween-80
[11] = dose: 50.0 mg/kg/injection, schedule: Q01DX009 (ip), vehicle: Klucel (hydroxypropylcellulose) (HPC)
[12] = dose: 100.0 mg/kg/injection, schedule: Q01DX009 (ip), vehicle: Klucel (hydroxypropylcellulose) (HPC)
[13] = dose: 200.0 mg/kg/injection, schedule: Q01DX009 (ip), vehicle: Klucel (hydroxypropylcellulose) (HPC)
[14] = dose: 25.0 mg/kg/injection, schedule: Q01DX009 (ip), vehicle: saline with Tween-80

Measured: T/C

O=c1c(N2CCOCC2)c(N2CCOCC2)c1=O
inactive: [1] 100 % of control | [2] 95 % of control | [3] 90 % of control

C=C1C(=O)OC2C(OC=O)CCCC12 (centres undefined)
inactive: [4] 100 % of control | [5] 103 % of control

BrCCc1ccc2ccccc2c1Br
inactive: dose: 50.0 mg/kg/injection, schedule: Q01DX005 (ip), vehicle: distilled water + Tween-80 + alcohol 111 % of control | dose: 100.0 mg/kg/injection, schedule: Q01DX005 (ip), vehicle: distilled water + Tween-80 + alcohol 109 % of control | dose: 200.0 mg/kg/injection, schedule: Q01DX005 (ip), vehicle: distilled water + Tween-80 + alcohol 105 % of control

O=C1/C(=C/c2ccc(O)cc2)CCC/C1=C\c1ccc(O)cc1
inactive: [6] 97 % of control | [7] 93 % of control | [8] 92 % of control

C[CH2][Sn]1([CH2]C)[c]2ccccc2Oc2cccc[c]21
inactive: [9] 109 % of control | [10] 109 % of control

C=C[Si]12OCCN(CCO1)CCO2
inactive: dose: 12.5 mg/kg/injection, schedule: Q01DX009 (ip), vehicle: Klucel (hydroxypropylcellulose) (HPC) 119 % of control | dose: 25.0 mg/kg/injection, schedule: Q01DX009 (ip), vehicle: Klucel (hydroxypropylcellulose) (HPC) 112 % of control | [11] 114 % of control | [12] 109 % of control and 98 % of control | [13] 102 % of control | dose: 400.0 mg/kg/injection, schedule: Q01DX009 (ip), vehicle: Klucel (hydroxypropylcellulose) (HPC) 100 % of control

Cc1c(C(=O)O)nc(-c2ccc3c(n2)C(=O)C(N)=CC3=O)c2[nH]c3ccccc3c12
inactive: dose: 0.1 mg/kg/injection, schedule: Q01DX009 (ip), vehicle: distilled water + Tween-80 + alcohol 110 % of control | dose: 0.2 mg/kg/injection, schedule: Q01DX009 (ip), vehicle: distilled water + Tween-80 + alcohol 116 % of control | dose: 0.4 mg/kg/injection, schedule: Q01DX009 (ip), vehicle: distilled water + Tween-80 + alcohol 112 % of control | dose: 0.8 mg/kg/injection, schedule: Q01DX009 (ip), vehicle: distilled water + Tween-80 + alcohol 113 % of control

Cc1c(O)c2ccccc2c2c1sc(NCCCN(CCO)CCO)[n+]2C
inactive: dose: 7.5 mg/kg/injection, schedule: Q01DX005 (ip), vehicle: saline 109 % of control | dose: 15.0 mg/kg/injection, schedule: Q01DX005 (ip), vehicle: saline 107 % of control | dose: 30.0 mg/kg/injection, schedule: Q01DX005 (ip), vehicle: saline 110 % of control

Cc1cc(C)nc(CC(O)c2ccc(C=O)cc2)c1 (centres undefined)
inactive: [6] 100 % of control | [7] 94 % of control | [8] 94 % of control

CC1CC(=O)c2cc(-c3ccccc3)oc2C1 (centres undefined)
inactive: [11] 115 % of control | [12] 102 % of control | [13] 97 % of control

C1CSCCCSCCCSCCCSC1
inactive: [11] 100 % of control | [12] 99 % of control | [13] 100 % of control

COc1ccc(-n2cnc3c(cnn3CN3CCCCC3)c2=O)cc1
inactive: [4] 104 % of control | [5] 103 % of control

Cc1nn(CCO)c2nc(N)nc(N)c12
inactive: dose: 100.0 mg/kg/injection, schedule: Q01DX001 (ip), vehicle: suspension in saline 104 % of control | dose: 200.0 mg/kg/injection, schedule: Q01DX001 (ip), vehicle: suspension in saline 101 % of control | dose: 400.0 mg/kg/injection, schedule: Q01DX001 (ip), vehicle: suspension in saline 100 % of control

COC(C)C(NC=O)C(=O)O (centres undefined)
inactive: dose: 50.0 mg/kg/injection, schedule: Q01DX005 (ip), vehicle: saline 100 % of control and 99 % of control | dose: 100.0 mg/kg/injection, schedule: Q01DX005 (ip), vehicle: saline 96 % of control and 98 % of control | dose: 200.0 mg/kg/injection, schedule: Q01DX005 (ip), vehicle: saline 100 % of control and 91 % of control

O=C(c1c(F)c(F)c(F)c(F)c1F)n1ccnc1
inactive: dose: 60.0 mg/kg/injection, schedule: Q01DX005 (ip), vehicle: saline 104 % of control | dose: 120.0 mg/kg/injection, schedule: Q01DX005 (ip), vehicle: saline 101 % of control | dose: 240.0 mg/kg/injection, schedule: Q01DX005 (ip), vehicle: saline 87 % of control

CC(=O)N(Sc1ccccc1)c1ccccc1
inactive: [14] 110 % of control | [9] 106 % of control | [10] 103 % of control

O=C(O)/C=C/CCCCCO
inactive: [1] 94 % of control | [2] 97 % of control | [3] 90 % of control

CCOC(=O)C1=C(C(C)=O)C(c2cccc([N+](=O)[O-])c2)C(C(C)=O)=C(C(=O)OCC)N1
inactive: [4] 98 % of control | [5] 88 % of control | dose: 240.0 mg/kg/injection, schedule: Q01DX005 (ip), vehicle: Klucel (hydroxypropylcellulose) (HPC) 95 % of control

CC(C)CC(=N)CC(C)C
inactive: dose: 50.0 mg/kg/injection, schedule: Q01DX005 (ip), vehicle: saline with Tween-80 100 % of control | dose: 100.0 mg/kg/injection, schedule: Q01DX005 (ip), vehicle: saline with Tween-80 100 % of control | dose: 200.0 mg/kg/injection, schedule: Q01DX005 (ip), vehicle: saline with Tween-80 96 % of control

Cc1cc(C(=O)O)c(C)c(S(=O)(=O)O)c1
inactive: dose: 12.5 mg/kg/injection, schedule: Q01DX009 (ip), vehicle: water 102 % of control | dose: 25.0 mg/kg/injection, schedule: Q01DX009 (ip), vehicle: water 97 % of control | dose: 50.0 mg/kg/injection, schedule: Q01DX009 (ip), vehicle: water 92 % of control | dose: 100.0 mg/kg/injection, schedule: Q01DX009 (ip), vehicle: water 102 % of control | dose: 200.0 mg/kg/injection, schedule: Q01DX009 (ip), vehicle: water 99 % of control

COc1ccccc1N1C(=O)/C(=N\OC(=O)c2c(-c3c(Cl)cccc3Cl)noc2C)SC1=S
inactive: dose: 50.0 mg/kg/injection, schedule: Q01DX009 (ip), vehicle: saline 104 % of control | dose: 100.0 mg/kg/injection, schedule: Q01DX009 (ip), vehicle: saline 90 % of control | dose: 200.0 mg/kg/injection, schedule: Q01DX009 (ip), vehicle: saline 89 % of control

C1CCC2(CC1)SCC1COCN12 (centres undefined)
inactive: dose: 100.0 mg/kg/injection, schedule: Q04DX003 (ip), vehicle: saline with Tween-80 103 % of control | dose: 200.0 mg/kg/injection, schedule: Q04DX003 (ip), vehicle: saline with Tween-80 97 % of control | dose: 400.0 mg/kg/injection, schedule: Q04DX003 (ip), vehicle: saline with Tween-80 103 % of control

COCn1ccnc1C(=O)c1ccco1
inactive: [9] 103 % of control | [10] 111 % of control | dose: 200.0 mg/kg/injection, schedule: Q01DX009 (ip), vehicle: saline with Tween-80 94 % of control

NC(CSCCCSCC(N)C(=O)O)C(=O)O (centres undefined)
inactive: dose: 25.0 mg/kg/injection, schedule: Q01DX001 (ip), vehicle: Klucel (hydroxypropylcellulose) (HPC) 97 % of control | dose: 50.0 mg/kg/injection, schedule: Q01DX001 (ip), vehicle: Klucel (hydroxypropylcellulose) (HPC) 97 % of control | dose: 100.0 mg/kg/injection, schedule: Q01DX001 (ip), vehicle: Klucel (hydroxypropylcellulose) (HPC) 96 % of control and 97 % of control | dose: 200.0 mg/kg/injection, schedule: Q01DX001 (ip), vehicle: Klucel (hydroxypropylcellulose) (HPC) 104 % of control

N#CC(Br)(CBr)COc1ccc(Cl)cc1Cl (centres undefined)
inactive: dose: 12.5 mg/kg/injection, schedule: Q01DX009 (ip), vehicle: saline with Tween-80 100 % of control | [14] 118 % of control | [9] 108 % of control

O=C(Nc1cccc2ccccc12)C1C(=O)C(=O)N(c2cccc3ccccc23)C1=O (centres undefined)
inactive: [11] 103 % of control | [12] 105 % of control | [13] 100 % of control

O=c1c2ccccc2ncn1CC1(O)CC2NCCCC2O1 (centres undefined)
inactive: dose: 2.0 mg/kg/injection, schedule: Q01DX009 (ip), vehicle: distilled water + Tween-80 115 % of control | dose: 4.0 mg/kg/injection, schedule: Q01DX009 (ip), vehicle: distilled water + Tween-80 117 % of control | dose: 5.0 mg/kg/injection, schedule: Q01DX009 (ip), vehicle: Klucel (hydroxypropylcellulose) (HPC) 116 % of control | dose: 8.0 mg/kg/injection, schedule: Q01DX009 (ip), vehicle: distilled water + Tween-80 102 % of control | dose: 10.0 mg/kg/injection, schedule: Q01DX009 (ip), vehicle: Klucel (hydroxypropylcellulose) (HPC) 107 % of control | dose: 16.0 mg/kg/injection, schedule: Q01DX009 (ip), vehicle: distilled water + Tween-80 117 % of control | dose: 20.0 mg/kg/injection, schedule: Q01DX009 (ip), vehicle: Klucel (hydroxypropylcellulose) (HPC) 98 % of control
